Measurements from US10335409B2 (priority 2012, dated 2019).

Assays:
[1] = test system: genotype 2a (JFH-1) stable HCV replicon in Huh-7-derived cells; test: Stable subgenomic HCV replicon EC50, genotype 2a (Renilla luciferase); format: cell-based, hepatitis C virus; details: Hepatitis C virus, stable replicon genotype 2a, 72 h, read-out: EC50 2A RLUC
Method in brief: (§1)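 Compounds, three-fold diluted, were applied to Huh-7-derived cells harbouring luciferase replicons (genotype 1a H77, 1b Con1, 2a JFH-1, 4a ED43, with strain-specific adaptive mutations). Seventy-two hours later, intracellular replication was gauged by Renilla luciferase activity and EC50 derived by regression.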

[2] = test system: genotype 1b (Con1) stable HCV replicon in Huh-7-derived cells; test: Stable subgenomic HCV replicon EC50, genotype 1b (Renilla luciferase); format: cell-based, hepatitis C virus; details: Hepatitis C virus, stable replicon genotype 1b, 72 h, read-out: EC50 1B RLUC
Method in brief: as §1

[3] = test system: genotype 4a (ED43) stable HCV replicon in Huh-7-derived cells; test: Stable subgenomic HCV replicon EC50, genotype 4a (Renilla luciferase); format: cell-based, hepatitis C virus; details: Hepatitis C virus, 72 h, read-out: EC50 4A RLUC
Method in brief: as §1

[4] = test system: genotype 1a (H77) stable HCV replicon in Huh-7-derived cells; test: Stable subgenomic HCV replicon EC50, genotype 1a (Renilla luciferase); format: cell-based, hepatitis C virus; details: Hepatitis C virus, stable replicon genotype 1a, 72 h, read-out: EC50 1A RLUC
Method in brief: as §1

[5] = test system: genotype 3a (S52) stable HCV replicon in Huh-7-derived cells; test: Stable subgenomic HCV replicon EC50, genotype 3a (Renilla luciferase); format: cell-based, hepatitis C virus; details: Hepatitis C virus, 72 h, read-out: EC50 3A RLUC
[6] = target: HCV NS3 protease domain genotype 3a (Hepatitis C virus genotype 3a, UniProt Q81258); test: Ki determination, NS3 protease genotype 3a (fluorogenic depsipeptide substrate); format: biochemical; details: 200 pM enzyme, NS4A peptide
Sequence of HCV NS3 protease domain genotype 3a (Q81258 whole entry, looked up, the tested form may be a part): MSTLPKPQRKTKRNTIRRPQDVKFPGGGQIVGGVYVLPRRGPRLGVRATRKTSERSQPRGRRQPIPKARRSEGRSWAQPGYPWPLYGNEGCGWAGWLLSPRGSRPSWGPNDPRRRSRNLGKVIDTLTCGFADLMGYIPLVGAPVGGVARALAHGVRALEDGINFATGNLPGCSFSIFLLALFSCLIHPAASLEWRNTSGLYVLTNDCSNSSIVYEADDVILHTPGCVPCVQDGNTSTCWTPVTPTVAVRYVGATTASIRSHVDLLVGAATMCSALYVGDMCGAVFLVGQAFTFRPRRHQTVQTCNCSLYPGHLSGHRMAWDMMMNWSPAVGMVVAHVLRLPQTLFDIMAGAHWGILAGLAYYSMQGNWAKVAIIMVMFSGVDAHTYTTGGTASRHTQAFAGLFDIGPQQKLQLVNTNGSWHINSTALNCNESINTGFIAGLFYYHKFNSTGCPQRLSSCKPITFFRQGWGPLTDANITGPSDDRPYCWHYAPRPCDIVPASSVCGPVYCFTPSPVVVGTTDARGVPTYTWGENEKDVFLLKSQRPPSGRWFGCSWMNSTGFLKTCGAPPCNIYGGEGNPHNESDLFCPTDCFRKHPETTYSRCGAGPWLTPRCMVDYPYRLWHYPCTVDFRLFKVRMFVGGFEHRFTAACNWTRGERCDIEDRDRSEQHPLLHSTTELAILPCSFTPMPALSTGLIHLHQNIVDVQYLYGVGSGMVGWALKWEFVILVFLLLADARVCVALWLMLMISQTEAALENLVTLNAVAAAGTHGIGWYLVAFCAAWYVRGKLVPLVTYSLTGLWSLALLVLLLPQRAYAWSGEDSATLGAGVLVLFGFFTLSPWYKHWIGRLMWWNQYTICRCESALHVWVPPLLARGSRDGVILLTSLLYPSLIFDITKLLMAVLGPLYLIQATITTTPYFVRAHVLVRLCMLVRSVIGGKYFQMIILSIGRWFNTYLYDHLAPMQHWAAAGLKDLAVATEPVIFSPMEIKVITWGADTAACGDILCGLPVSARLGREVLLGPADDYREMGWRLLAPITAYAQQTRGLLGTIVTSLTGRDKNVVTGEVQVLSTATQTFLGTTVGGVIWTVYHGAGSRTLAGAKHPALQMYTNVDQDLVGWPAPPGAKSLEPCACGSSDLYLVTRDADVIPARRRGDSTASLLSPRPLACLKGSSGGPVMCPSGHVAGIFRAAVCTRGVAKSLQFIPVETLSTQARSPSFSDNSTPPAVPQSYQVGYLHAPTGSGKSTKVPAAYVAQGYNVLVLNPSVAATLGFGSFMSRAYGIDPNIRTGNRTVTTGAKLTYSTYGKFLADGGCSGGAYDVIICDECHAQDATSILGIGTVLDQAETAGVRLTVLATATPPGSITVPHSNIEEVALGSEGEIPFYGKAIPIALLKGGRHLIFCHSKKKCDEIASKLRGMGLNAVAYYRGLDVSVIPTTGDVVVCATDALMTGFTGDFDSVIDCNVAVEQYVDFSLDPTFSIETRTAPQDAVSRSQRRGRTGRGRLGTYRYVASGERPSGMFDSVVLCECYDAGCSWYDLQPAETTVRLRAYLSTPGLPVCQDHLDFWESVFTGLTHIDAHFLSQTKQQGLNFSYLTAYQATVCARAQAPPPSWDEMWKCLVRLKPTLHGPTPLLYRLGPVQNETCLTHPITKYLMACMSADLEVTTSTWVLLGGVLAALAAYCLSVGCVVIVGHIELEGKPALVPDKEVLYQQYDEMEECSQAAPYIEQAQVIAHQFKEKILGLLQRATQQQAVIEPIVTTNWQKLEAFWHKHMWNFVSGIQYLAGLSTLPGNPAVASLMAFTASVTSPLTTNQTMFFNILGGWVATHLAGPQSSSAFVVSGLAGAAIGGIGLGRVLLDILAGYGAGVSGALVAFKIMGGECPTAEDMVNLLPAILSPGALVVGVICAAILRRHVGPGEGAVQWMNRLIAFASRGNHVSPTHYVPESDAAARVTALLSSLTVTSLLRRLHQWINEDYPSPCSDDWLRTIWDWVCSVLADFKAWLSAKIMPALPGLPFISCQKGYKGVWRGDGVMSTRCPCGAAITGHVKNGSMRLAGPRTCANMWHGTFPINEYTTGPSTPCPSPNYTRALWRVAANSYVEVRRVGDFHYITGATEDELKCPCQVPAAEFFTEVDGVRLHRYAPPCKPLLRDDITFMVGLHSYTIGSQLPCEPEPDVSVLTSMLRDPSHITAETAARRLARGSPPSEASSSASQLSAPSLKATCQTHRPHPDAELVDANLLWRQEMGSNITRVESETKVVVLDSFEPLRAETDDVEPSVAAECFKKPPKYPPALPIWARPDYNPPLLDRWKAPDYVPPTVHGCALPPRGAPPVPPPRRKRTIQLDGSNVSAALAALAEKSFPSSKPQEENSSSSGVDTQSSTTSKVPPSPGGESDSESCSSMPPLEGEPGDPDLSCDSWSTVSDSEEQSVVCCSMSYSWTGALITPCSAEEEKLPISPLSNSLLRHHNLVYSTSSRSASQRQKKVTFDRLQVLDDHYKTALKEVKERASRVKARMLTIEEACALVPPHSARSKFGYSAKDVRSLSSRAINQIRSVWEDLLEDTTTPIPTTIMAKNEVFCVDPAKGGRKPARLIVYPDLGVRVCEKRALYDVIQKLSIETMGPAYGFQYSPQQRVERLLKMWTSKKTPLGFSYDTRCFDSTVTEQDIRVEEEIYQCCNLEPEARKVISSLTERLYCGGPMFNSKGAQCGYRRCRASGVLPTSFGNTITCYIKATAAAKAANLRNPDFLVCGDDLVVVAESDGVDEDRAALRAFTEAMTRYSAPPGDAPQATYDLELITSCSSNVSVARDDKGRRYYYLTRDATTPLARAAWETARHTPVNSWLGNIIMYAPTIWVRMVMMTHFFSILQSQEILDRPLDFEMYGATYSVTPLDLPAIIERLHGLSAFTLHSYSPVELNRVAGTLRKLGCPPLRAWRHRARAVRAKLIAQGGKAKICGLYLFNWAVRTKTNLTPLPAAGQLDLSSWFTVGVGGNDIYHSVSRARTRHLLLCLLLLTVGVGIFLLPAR
Description: Purified NS3 protease domain (amino acids 1-181) of the genotype 1b and 3a virus were generated as above. The internally quenched fluorogenic depsipeptide substrate Ac-DED(Edans)-EEAbuΨ[COO]ASK(Dabcyl)-NH2 and a synthetic peptide containing the hydrophobic core residues of the NS4A protein cofactor ([…]; NS4A peptide) were obtained from Anaspec, Inc. (San Jose, Calif.). Other chemicals and biochemicals were of reagent grade or better and were purchased from standard suppliers.
Reactions were run at room temperature in buffer consisting of 50 mM HEPES, 40% glycerol, 0.05% Triton X-100, 10 mM DTT, and 10% DMSO. The final assay solutions contained 50 pM NS3 genotype 1 b protease or 200 pM genotype 3a protease, 20 μM NS4A peptide, and 4 μM substrate (genotype 1b) or 2 μM substrate (genotype 3a). Inhibitor concentrations varied from 100 nM to 5 pM in 3-fold dilutions, and no-inhibitor controls were included.
Compound dilutions were made in DMSO at 20× final concentration. Reaction mixtures were prepared in 96-well assay plates. A solution of enzyme and NS4A peptide in assay buffer (25 μL volume with both reagents at 4× final concentration) was mixed with 45 μL assay buffer and 5 μL of either inhibitor or DMSO, and pre-incubated at room temperature for 1 hour. The reaction was started by addition of 25 μL substrate solution at 4× final concentration. Plates were mixed vigorously for 5-10 seconds and reactions were allowed to proceed for 90 minutes, fluorescence was measured every 30 s between 90 and 120 minutes reaction time using a Tecan InfiniTe M1000 or PerkinElmer Envision multimode plate reader with an excitation wavelength of 340 nm and an emission wavelength of 490 nm.
Rates were calculated from the progress curves at steady state, in the time frame of 90-120 minutes after addition of substrate. To determine the Ki, rates were plotted as a function of inhibitor concentration, and the data were fit with equation 1 (Morrison, J. F., Biochimica et Biophysica Acta 1969, 185, 269-286) to calculate Ki^app using GraphPad Prism 5. Active fraction of enzyme was determined by active site titration with known potent inhibitors. Ki was calculated from Ki^app/(1+[[S]/Km]).

[7] = test system: genotype 1b (Con1) wild type transient HCV replicon in Huh-7-derived cells; test: Transient-transfected HCV replicon EC50, genotype 1b wild type; format: cell-based, hepatitis C virus; details: Hepatitis C virus, 72 h, transient-transfected replicon genotype 1b wild type, read-out: EC50 1B WT
[8] = test system: genotype 1a NS3/4a protease inhibitor resistant variant R155K transient HCV replicon in Huh-7-derived cells; test: Transient-transfected HCV replicon EC50, genotype 1a R155K; format: cell-based, hepatitis C virus; details: Hepatitis C virus, 72 h, read-out: EC50 1A R155K, transient-transfected replicon genotype 1a R155K resistant variant, 72 h
[9] = test system: genotype 1a (H77) wild type transient HCV replicon in Huh-7-derived cells; test: Transient-transfected HCV replicon EC50, genotype 1a wild type; format: cell-based, hepatitis C virus; details: Hepatitis C virus, 72 h, transient-transfected replicon genotype 1a wild type, read-out: EC50 1A WT
[10] = test system: genotype 3a (S52) wild type transient HCV replicon in Huh-7-derived cells; test: Transient-transfected HCV replicon EC50, genotype 3a wild type; format: cell-based, hepatitis C virus; details: Hepatitis C virus; transient-transfected replicon genotype 3a wild type, 72 h; read-out: EC50 3A WT
[11] = test system: genotype 1b NS3/4a protease inhibitor resistant variant D168A transient HCV replicon in Huh-7-derived cells; test: Transient-transfected HCV replicon EC50, genotype 1b D168A; format: cell-based, hepatitis C virus; details: Hepatitis C virus, 72 h, read-out: EC50 1B D168A, transient-transfected replicon genotype 1b D168A resistant variant, 72 h

| SMILES | EC50 [1] | EC50 [2] | EC50 [3] | EC50 [4] | EC50 [5] | Ki [6] | EC50 [7] | EC50 [8] | EC50 [9] | EC50 [10] | EC50 [11] |
| --- | --- | --- | --- | --- | --- | --- | --- | --- | --- | --- | --- |
| CC[C@@H]1[C@@H]2CN(C(=O)[C@H](C3CCCCC3)NC(=O)O[C@@H]3C[C@H]3CCCCCc3nc4ccc(OC)cc4nc3O2)[C@@H]1C(=O)N[C@]1(C(=O)NS(=O)(=O)C2(C)CC2)C[C@H]1C(F)F [Example 16, (1aR,5S,8S,9S,10R,22aR)-5-cyclohexyl-N-[(1R,2R)-2-(difluoromethyl)-1-{[(1-methylcyclopropyl)sulfonyl]carbamoyl}cyclopropyl]-9-ethyl-14-methoxy-3,6-dioxo-1,1a,3,4,5,6,9,10,18,19,20,21,22,22a-tetradecahydro-8H-7,10-methanocyclopropa[18,19][1,10,3,6]dioxadiazacyclononadecino[11,12-b]quinoxaline-8-carboxamide] | 6.2 nM | 7.4 nM | 8.1 nM | 12 nM | 201 nM | 0.21 nM | – | – | – | – | – |
| COc1ccc2nc3c(nc2c1)O[C@H]1CN(C(=O)[C@H](C(C)(C)C)NC(=O)O[C@@H]2C[C@H]2CCCCC3)[C@H](C(=O)N[C@]2(C(=O)NS(=O)(=O)C3(C)CC3)C[C@H]2C(F)F)[C@@H]1C [Example 18, (1aR,5S,8S,9S,10R,22aR)-5-tert-butyl-N-[(1R,2R)-2-(difluoromethyl)-1-{[(1-methylcyclopropyl)sulfonyl]carbamoyl}cyclopropyl]-14-methoxy-9-methyl-3,6-dioxo-1,1a,3,4,5,6,9,10,18,19,20,21,22,22a-tetradecahydro-8H-7,10-methanocyclopropa[18,19][1,10 3,6]dioxadiazacyclononadecino[11,12-b]quinoxaline-8-carboxamide] | 5 nM | 2.6 nM | 2.8 nM | 3.9 nM | 70 nM | 0.1 nM | – | – | – | – | – |
| C=C[C@@H]1C[C@]1(NC(=O)[C@@H]1[C@H](CC)[C@@H]2CN1C(=O)[C@H](C(C)(C)C)NC(=O)O[C@@H]1C[C@H]1CCCCC(F)(F)c1nc3ccc(OC)cc3nc1O2)C(=O)NS(=O)(=O)C1CC1 [Example 92, (1aR,5S,8S,9S,10R,22aR)-5-tert-butyl-N-{(1R,2S)-1-[(cyclopropylsulfonoyl)carbamoyl]-2-ethenylcyclopropyl}-9-ethyl-18,18-difluoro-14-methoxy-3,6-dioxo-1,1a,3,4,5,6,9,10,18,19,20,21,22,22a-tetradecahydro-8H-7,10-methanocyclopropa[18,19][1,10,3,6]dioxadiazacyclononadecino[11,12-b]quinoxaline-8-carboxamide] | 4.6 nM | 3.2 nM | 3.2 nM | 3.3 nM | 58 nM | – | 1.7 nM | 3 nM | 3 nM | 8 nM | 5.3 nM |
| CC[C@@H]1[C@@H]2CN(C(=O)[C@H](C(C)(C)C)NC(=O)O[C@@H]3C[C@H]3CCCCC(F)(F)c3nc4ccc(OC)cc4nc3O2)[C@@H]1C(=O)NC1(C(=O)NS(=O)(=O)C2(C)CC2)C[C@H]1CC (stereo partly drawn) [Example 93, (1aR,5S,8S,9S,10R,22aR)-5-tert-butyl-9-ethyl-N-[(2R)-2-ethyl-1-{[(1-methylcyclopropyl)sulfonyl]carbamoyl}cyclopropyl]-18,18-difluoro-14-methoxy-3,6-dioxo-1,1a,3,4,5,6,9,10,18,19,20,21,22,22a-tetradecahydro-8H-7,10-methanocyclopropa[18,19][1,10,3,6]dioxadiazacyclononadecino[11,12-b]quinoxaline-8-carboxamide] | 15 nM | 14 nM | 11 nM | 12 nM | 116 nM | – | 14 nM | 13 nM | 13 nM | 26 nM | 39 nM |
| CC[C@@H]1[C@@H]2CN(C(=O)[C@H](C(C)(C)C)NC(=O)O[C@@H]3C[C@H]3CCCCC(F)(F)c3nc4ccc(OC)cc4nc3O2)[C@@H]1C(=O)NC1(C(=O)NS(=O)(=O)C2CC2)C[C@H]1C(F)F (stereo partly drawn) [Example 94, (1aR,5S,8S,9S,10R,22aR)-5-tert-butyl-N-[(2R)-1-[(cyclopropylsulfonyl)carbamoyl]-2-(difluoromethyl)cyclopropyl]-9-ethyl-18,18-difluoro-14-methoxy-3,6-dioxo-1,1a,3,4,5,6,9,10,18,19,20,21,22,22a-tetradecahydro-8H-7,10-methanocyclopropa[18,19][1,10,3,6]dioxadiazacyclononadecino[1,12-b]quinoxaline-8-carboxamide] | 3.3 nM | 5.2 nM | 3 nM | 3.8 nM | 32 nM | – | 1.9 nM | 3.1 nM | 3.2 nM | 10 nM | 9.2 nM |
| C[C@@H]1[C@@H]2CN(C(=O)[C@H](C(C)(C)C)NC(=O)O[C@@H]3C[C@@H]4C[C@@H]4[C@H]3CC/C=C/Cn3c(nc4cc(Cl)ccc4c3=O)O2)[C@@H]1C(=O)N[C@]1(C(=O)NS(=O)(=O)C2(C)CC2)C[C@H]1C(F)F [Example 96, (1aS,2aR,6S,9S,10S,11R,21E,24aR,24bS)-6-tert-butyl-15-chloro-N-[(1R,2R)-2-(difluoromethyl)-1-{[(1-methylcyclopropyl)sulfonyl]carbamoyl}cyclopropyl]-10-methyl-4,7,18-trioxo-1a,2,2a,4,5,6,7,10,11,20,23,24,24a,24b-tetradecahydro-1H,9H,18H-8,11-methanocyclopropa[4′,5′]cyclopenta[1′,2′:18,19][1,10,3,6,12]dioxatriazacyclononadecino[11,12-b]quinazoline-9-carboxamide] | 5.4 nM | 11 nM | 8.9 nM | 12 nM | 77 nM | – | 4.1 nM | 3.8 nM | 5.2 nM | 12 nM | 3.6 nM |
| C[C@@H]1[C@@H]2CN(C(=O)[C@H](C(C)(C)C)NC(=O)O[C@@H]3C[C@@H]4C[C@@H]4[C@H]3CCCCCc3nc4ccc(C#N)cc4nc3O2)[C@@H]1C(=O)NC1(C(=O)NS(=O)(=O)C2(C)CC2)C[C@H]1C(F)F (stereo partly drawn) [Example 97, (1aS,2aR,6S,9S,10S,11R,23aR,23bS)-6-tert-butyl-15-cyano-N-[(2R)-2-(difluoromethyl)-1-{[(1-methylcyclopropyl)sulfonyl]carbamoyl}cyclopropyl]-10-methyl-4,7-dioxo-1a,2,2a,4,5,6,7,10,11,19,20,21,22,23,23a,23b-hexadecahydro-1H, 9H-8,11-methanocyclopropa[4′,5′]cyclopenta[1′,2′:18,19][1,10,3,6]dioxadiazacyclononadecino[11,12-b]quinoxaline-9-carboxamide] | 5.8 nM | 4.6 nM | 5.3 nM | 6.3 nM | 67 nM | – | 2.5 nM | 3.7 nM | 3.6 nM | 5.8 nM | 8.8 nM |
